Source: patent publication US20130261137A1, “Methods, Compounds and Compositions Relating to Activating a Latent Virus” (ULC BUSINESS PLC, priority 2010, published 2013)

Columns and labels:
[1] = test system: JSC-1 cells; experiment: Cell viability assay (CellTiter-Glo); details: for GCV cytotoxicity after pre-treatment with compound: pre-treatment 24 h (UCLB-15026 800 nM, taxol 80 nM), then GCV 20 or 100 μM, 48 and 72 h
[2] = test system: HIV-1 LTR in J-Lat A72 cells; experiment: HIV-1 LTR assay, GFP expression in J-LAT A72 cells; details: for reduction of HIV LTR induction by 15026 compared to DMSO control: 15026 0.8 μM; for HIV-1 LTR induction by other antimicrotubule agents: taxol 0.8 μM, vinblastine 0.8 μM, ERK dependent (U0126)
[3] = test system: KSHV RTA in JSC-1 PYFP cells
[4] = test system: KSHV RTA in JSC-1 cells; format: cell-based
[5] = test system: KSHV (rKSHV.219) in JSC-1 cells; format: cell-based
[6] = test system: HIV-1 LTR in U1 cells; experiment: HIV-1 LTR induction assay, TAR RNA qPCR in U1 cells; details: 15026 4 μM
[7] = test system: HIV-1 LTR in ACH2 cells; experiment: HIV-1 LTR induction assay, TAR RNA qPCR in ACH2 cells; details: 15026 4 μM
[8] = test system: JSC-1 PYFP cells; details: U0126 10 μM, 40 h
[9] = test system: HIV-1 LTR of subtype A in LGIT cells; experiment: HIV-1 LTR induction, GFP in LGIT cells, LTR subtype A; details: 24 hours; ERK-dependent (with or without U0126 10 μM)
[10] = test system: HIV-1 LTR of subtype C in LGIT cells; experiment: HIV-1 LTR induction, GFP in LGIT cells, LTR subtype C; details: 24 hours; ERK-dependent (with or without U0126 10 μM)
[11] = test system: cells (cell cycle); details: reported for the compound; cited from earlier work
[12] = test system: tubulin; details: reported, reference 21; read-out: IC50 inhibiting tubulin polymerization; cited from earlier work
[13] = test system: KSHV RTA in JSC-1 PLuc cells; format: cell-based
[14] = test system: KSHV RTA in BCBL-1 PLuc cells; format: cell-based
[15] = test system: HIV-1 LTR of subtype A/G in LGIT cells; experiment: HIV-1 LTR induction, GFP in LGIT cells, LTR subtype A/G; details: 24 hours; ERK-dependent (with or without U0126 10 μM)
[16] = test system: microtubule network in JSC-1 cells; experiment: Confocal immunofluorescence microscopy of microtubule network; format: cell-based; details: 100 μM, 16 h
Protocol: JSC-1 cells were grown on coverslips coated with […] (Sigma) with DMSO or UCLB-15026 (100 μM) for 16 h. JSC-1 cells were then fixed in 3% paraformaldehyde, rinsed and permeabilized in 0.02% Triton-PBS. This was followed by blocking in 2% FCS-PBS, staining with anti-tubulin antibody (Sigma), washed, and then incubated with Alexa-488 conjugated goat anti-mouse secondary antibody (Molecular Probes) before being mounted onto slides using VectaShield mounting medium containing DAPI. Images were taken using confocal microscope (Leica).

[17] = test system: HIV-1 LTR in PBMCs from HIV-1 positive individuals; experiment: Ex vivo HIV-1 LTR induction assay, TAR RNA qPCR in PBMCs from HIV-1 positive individuals; format: cell-based; details: 100 μM, 24 h
[18] = test system: KSHV ORF 29 in JSC-1 cells; experiment: Semi-quantitative RT-PCR of KSHV late gene ORF 29 in JSC-1; format: cell-based; details: different concentrations
Description: Briefly, RNA was extracted from 2×10^6 cells with TRIzol (Invitrogen) and treated with DNase (Ambion), followed by phenol extraction and ethanol precipitation. Serial dilution (3×10-fold) of oligonucleotide dT (Qiagen)-primed cDNA was used for PCR amplification (Promega) of KSHV ORF 29 using forward ([…]; SEQ ID NO. 1) and reverse ([…]; SEQ ID NO. 2) primers. All samples were normalized by PCR amplification of beta-2 microglobulin (β2M) using serially diluted cDNA with forward ([…]; SEQ ID NO. 3) and reverse ([…]; SEQ ID NO. 4) primers. The PCR cycle consisting of 95° C. for 30 seconds, 50° C. for 30 seconds, and 72° C. for 30 seconds was repeated 36 times for ORF 29, and 28 times for β2M. Both set of primers amplify across splice junction and the sizes (in bp) of the expected products are: ORF 29 (cDNA—399, DNA—3650) and β2M (cDNA—301, DNA—2178).

## Nc1nc(O)c2ncn(COC(CO)CO)c2n1 [GCV, ganciclovir]
[1]; DMSO 24 h, then GCV 20 μM or 100 μM, 24, 48, 72 h
  effect of GCV alone on JSC-1 proliferation: no detrimental effect

## O=S(=O)(NCCNC/C=C/c1ccc(Br)cc1)c1cccc2cnccc12 [H89]
[2]
  reduction of HIV LTR induction by 15026 compared to DMSO control: 80%
[3]; 15026 0.8 μM
  reduction of KSHV RTA induction by 15026 compared to DMSO control: 35%

## Nc1ncnc2c1ncn2[C@@H]1O[C@@H]2COP(O)(=S)O[C@H]2[C@H]1O (some centres unmarked) [Rp-cAMP]
[2]
  reduction of HIV LTR induction by 15026 compared to DMSO control: about 40%

## CCCC(=O)[O-].[Na+] [SB, sodium butyrate]
[4]
  KSHV RTA induction and induction kinetics (western blot): delayed-kinetics

## CCCCCCCCCCCCCC(=O)O[C@@H]1[C@@H](C)[C@@]2(O)[C@@H](C=C(CO)C[C@]3(O)C(=O)C(C)=C[C@@H]23)[C@@H]2C(C)(C)[C@]12OC(C)=O [TPA, 12-O-tetradecanoyl-phorbol-13-acetate]
[4]
  KSHV RTA induction and induction kinetics (western blot): immediate-kinetics
  exposure required for KSHV induction: < 1 h
[5]
  % RFP-positive cells: −1.8%

## N#CC(=C(/N)Sc1ccccc1N)/C(C#N)=C(\N)Sc1ccccc1N [U0126]
[6]; U0126 10 μM
  effect of ERK inhibitor on LTR induction by 15026 (TAR RNA): inhibited 15026 activity
[7]; U0126 10 μM
  effect of ERK inhibitor on LTR induction by 15026 (TAR RNA): inhibited 15026 activity
[8]
  cell viability (trypan blue exclusion): no significant effect on cell viability
[2]; U0126 10 μM, 15026 4 μM
  effect of ERK inhibitor on LTR induction by 15026 (GFP): inhibited 15026 activity

## COc1ccc(-c2csc3c2-n2cccc2C3=O)cc1 [UCLB-15026]
[6]
  HIV-1 LTR activity (TAR RNA expression): induced LTR activity
[9]
  GFP expression driven by LTR of subtype A: induced GFP expression
[10]
  GFP expression driven by LTR of subtype C: induced GFP expression
[11]
  cell cycle effect: accumulated in the G2/M phases of cell cycle
[12]
  IC50: 2900 nM
[13]
  RTA expression (% RLU normalized to TPA control/10^5 cells): activate RTA expression
[14]
  RTA induction (% RLU normalized to TPA control/10^5 cells): induced RTA
[7]
  HIV-1 LTR activity (TAR RNA expression): induced LTR activity
[15]
  GFP expression driven by LTR of subtype A/G: induced GFP expression
[1]
  GCV cytotoxicity after pre-treatment with compound: enhanced GCV cytotoxicity
[16]
  effect on microtubule network (anti-tubulin immunofluorescence): disrupts microtubule network
[17]
  TAR RNA copies compared with DMSO, three PBMC cultures: higher TAR RNA copies in two out of three PBMC cultures
[17]; PBMC culture
  TAR RNA copies compared with DMSO, volunteer 1: about 5 fold
  TAR RNA copies compared with DMSO, volunteer 2: about 200 fold
[2]; 15026 4 μM, 24 hours
  HIV-1 LTR activity (GFP expression): induced LTR activity
[2]; UCLB-15026 at different concentrations, 24 or 40 h
  LTR-mediated GFP expression: substantially induced
[18]
  expression of KSHV late gene ORF 29: dose-dependent expression
[3]
  KSHV reactivation (% YFP-positive cells normalized to TPA control): reactivated KSHV to similar levels
  concentration range of half their maximal activities (KSHV reactivation): nanomolar range

## O=c1c(-c2ccc(O)cc2)coc2cc(O)cc(O)c12 [genistein]
[2]; genistein 100 μM, 24 h post-treatment
  HIV-1 LTR activity (% GFP-positive cells normalized to TPA): induction of HIV-1 LTR activity
[2]; genistein 100 μM
  HIV-1 LTR induction by other antimicrotubule agents: can induce
[3]
  KSHV RTA induction by other antimicrotubule agents: can induce
  KSHV lytic cycle induction (% YFP-positive cells normalized to TPA): can reactivate KSHV

## CC(=O)O[C@H]1C(=O)[C@@]2(C)[C@H]([C@H](OC(=O)c3ccccc3)[C@]3(O)C[C@H](OC(=O)[C@H](O)[C@@H](NC(=O)c4ccccc4)c4ccccc4)C(C)=C1C3(C)C)[C@]1(OC(C)=O)CO[C@@H]1C[C@@H]2O [taxol, paclitaxel]
[13]
  RTA expression (% RLU normalized to TPA control/10^5 cells): activate RTA expression
[14]
  RTA induction (% RLU normalized to TPA control/10^5 cells): induced RTA
[1]
  GCV cytotoxicity after pre-treatment with compound: small but statistically significant increase in cell cytotoxicity
[2]; genistein 100 μM
  HIV-1 LTR induction by other antimicrotubule agents: induce transcriptional activities
[18]
  expression of KSHV late gene ORF 29: dose-dependent expression
[3]
  KSHV reactivation (% YFP-positive cells normalized to TPA control): reactivated KSHV to similar levels
  concentration range of half their maximal activities (KSHV reactivation): nanomolar range

## CC[C@]1(O)C[C@@H]2CN(CCc3c([nH]c4ccccc34)[C@@](C(=O)OC)(c3cc4c(cc3OC)N(C)[C@H]3[C@@](O)(C(=O)OC)[C@H](OC(C)=O)[C@]5(CC)C=CCN6CC[C@]43[C@@H]65)C2)C1 [vinblastine]
[2]; genistein 100 μM
  HIV-1 LTR induction by other antimicrotubule agents: can induce
[3]
  KSHV RTA induction by other antimicrotubule agents: can induce
